Data published in patent publication US11040981B2, “Pyrrolotriazine compounds and methods of inhibiting TAM kinases” (Syros Pharmaceuticals, Inc., priority 2017, dated 2021).
pIC50: −log10 of the molar value.

Columns and labels:
[1] = molecular target: T1, AXL (Homo sapiens, UniProt P30530); test: TR-FRET kinase activity assay, AXL; assay type: biochemical; conditions: ATP at Km, 60 minutes
T1 sequence (P30530 26-894): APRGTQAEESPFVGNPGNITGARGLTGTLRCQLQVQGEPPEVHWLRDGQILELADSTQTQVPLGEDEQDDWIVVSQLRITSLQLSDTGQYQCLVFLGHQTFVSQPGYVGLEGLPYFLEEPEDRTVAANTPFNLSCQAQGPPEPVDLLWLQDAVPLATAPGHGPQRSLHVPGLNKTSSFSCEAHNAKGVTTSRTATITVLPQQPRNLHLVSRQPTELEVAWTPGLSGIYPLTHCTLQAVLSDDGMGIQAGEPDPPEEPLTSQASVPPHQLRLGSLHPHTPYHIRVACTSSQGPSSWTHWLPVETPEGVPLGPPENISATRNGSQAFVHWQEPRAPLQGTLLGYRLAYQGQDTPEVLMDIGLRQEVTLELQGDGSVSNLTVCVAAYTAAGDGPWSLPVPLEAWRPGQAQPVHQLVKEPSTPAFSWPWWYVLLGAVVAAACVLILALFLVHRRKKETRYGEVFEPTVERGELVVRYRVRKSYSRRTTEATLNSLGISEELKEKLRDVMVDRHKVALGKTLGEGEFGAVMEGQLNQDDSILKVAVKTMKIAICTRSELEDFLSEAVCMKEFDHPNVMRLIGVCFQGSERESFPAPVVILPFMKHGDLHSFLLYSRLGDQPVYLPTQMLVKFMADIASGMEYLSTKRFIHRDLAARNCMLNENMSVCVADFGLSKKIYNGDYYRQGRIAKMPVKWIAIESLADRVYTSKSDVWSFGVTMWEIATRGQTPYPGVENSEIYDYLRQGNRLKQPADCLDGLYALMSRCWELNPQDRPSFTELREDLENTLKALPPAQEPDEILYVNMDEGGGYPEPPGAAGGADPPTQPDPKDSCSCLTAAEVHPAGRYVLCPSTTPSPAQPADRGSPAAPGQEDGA
Summary of the method: (§1)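 Each kinase phosphorylated a fluorescent-labelled tyrosine peptide in 50 mM HEPES pH 7.5, 10 mM MgCl2, 1 mM EGTA, 0.01% Brij 35, 1 mM DTT at RT, with ATP at Km for that enzyme. After 60 min, EDTA quench and Eu-anti-phosphotyrosine antibody (30 min, dark); IC50 from TR-FRET decrease.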

[2] = molecular target: T2, FLT3 (Homo sapiens, UniProt P36888); test: TR-FRET kinase activity assay, FLT3; assay type: biochemical; conditions: ATP at Km, 60 minutes
T2 sequence (P36888 27-993): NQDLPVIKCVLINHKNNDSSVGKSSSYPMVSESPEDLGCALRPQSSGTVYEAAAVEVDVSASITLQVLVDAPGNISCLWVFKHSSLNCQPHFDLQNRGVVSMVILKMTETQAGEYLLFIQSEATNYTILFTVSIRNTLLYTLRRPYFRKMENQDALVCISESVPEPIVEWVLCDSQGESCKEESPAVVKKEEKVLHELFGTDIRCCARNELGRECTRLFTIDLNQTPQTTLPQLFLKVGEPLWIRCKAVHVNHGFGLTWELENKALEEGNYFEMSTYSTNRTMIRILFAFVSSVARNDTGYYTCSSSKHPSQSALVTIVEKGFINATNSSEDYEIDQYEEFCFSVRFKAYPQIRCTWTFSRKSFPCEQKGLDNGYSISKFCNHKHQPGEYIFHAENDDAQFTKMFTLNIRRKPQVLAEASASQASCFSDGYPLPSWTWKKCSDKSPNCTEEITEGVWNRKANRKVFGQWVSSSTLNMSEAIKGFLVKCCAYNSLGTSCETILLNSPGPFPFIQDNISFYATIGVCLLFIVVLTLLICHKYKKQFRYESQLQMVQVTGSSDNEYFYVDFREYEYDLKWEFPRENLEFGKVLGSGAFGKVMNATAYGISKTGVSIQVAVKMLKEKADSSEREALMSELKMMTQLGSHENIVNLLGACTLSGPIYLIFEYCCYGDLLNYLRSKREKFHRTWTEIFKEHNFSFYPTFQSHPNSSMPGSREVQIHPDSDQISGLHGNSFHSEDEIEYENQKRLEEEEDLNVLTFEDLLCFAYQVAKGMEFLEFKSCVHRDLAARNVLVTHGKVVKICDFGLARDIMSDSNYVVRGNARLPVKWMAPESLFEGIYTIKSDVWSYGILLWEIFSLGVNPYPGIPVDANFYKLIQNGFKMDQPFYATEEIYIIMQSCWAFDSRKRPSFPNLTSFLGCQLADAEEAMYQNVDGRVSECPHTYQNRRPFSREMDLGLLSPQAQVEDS
Summary of the method: as §1

`C[C@@H](COC(F)F)Nc1ncc2c(-c3cnn(CCS(C)(=O)=O)c3)cc([C@H]3CC[C@H](O)CC3)n2n1` [Compound 436] gave a pIC50 [1] of at least 7.00 and a pIC50 [2] of 6.00 to 7.00.
`COC[C@H](C)Nc1ncc2c(-c3ccc(C(C)(C)C(=O)N4CCOCC4)s3)cc([C@H]3CC[C@H](O)CC3)n2n1` [Compound 460] was tested, and the pIC50 [1] was at least 7.00 and the pIC50 [2] was at least 7.00.
With `COC[C@H](C)Nc1ncc2c(-c3cnn(C4COC4)c3)cc([C@H]3CC[C@](C)(O)CC3)n2n1` (single isomer, unassigned) [Compound 452] the pIC50 [1] was at least 7.00 and the pIC50 [2] was 6.00 to 7.00.
For `COC[C@H](C)Nc1ncc2c(-c3ccnc(N4CCN(C(=O)C5COC5)CC4)c3)cc([C@H]3CC[C@H](O)CC3)n2n1` [Compound 500], the pIC50 [1] was at least 7.00 and the pIC50 [2] was 6.00 to 7.00.
Work on `COC[C@H](C)Nc1ncc2c(-c3ccnc(N4CCOC4=O)c3)cc([C@H]3CC[C@H](O)CC3)n2n1` [Compound 438] yielded a pIC50 [1] of at least 7.00 and a pIC50 [2] of 5.00 to 6.00.
With `COC[C@H](C)Nc1ncc2c(-c3ccc(-c4nn[nH]n4)cc3)cc([C@H]3CC[C@H](O)CC3)n2n1` [Compound 134] the pIC50 [1] was at least 7.00 and the pIC50 [2] was 5.00 to 6.00.
In the case of `COC[C@H](C)Nc1ncc2c(-c3cnn([C@@H]4CCN(C)C4=O)c3)cc([C@H]3CC[C@H](O)CC3)n2n1` [Compound 471], the pIC50 [1] was at least 7.00 and the pIC50 [2] was 5.00 to 6.00.
